In patent US10066272B2, “Human homeobox gene ventx and macrophage terminal differentiation and activation, compositions and methods thereof” (priority 2011, dated 2018):

Legend:
Assay type in all cases: cell-based, human
VentX = VentX expression during cytokine-induced monocyte to macrophage differentiation (RT-PCR, western blot); details: monocytes cultured with cytokine at 100 ng/ml (FIG. 1B)
Protocol: (B) VentX expression during monocyte to macrophage differentiation in vitro. Monocytes were cultured in the presence of M-CSF (M), GM-CSF (GM) or IL3 for indicated days or in the absence of cytokines for 3 days. […] VentX expression in freshly isolated monocytes was used as baseline control (Day 0). […] (D) Time course of VentX expression during in vitro induction of monocytes differentiation into macrophages. Monocytes were subjected to M-CSF treatment in vitro for indicated time. The VentX mRNA levels were determined by quantitative PCR for up to 7 days.
Peripheral blood mononuclear cells (PBMC) from healthy adult donors at Children's Hospital Boston were isolated by Ficoll density gradient centrifugation. […] CD14^+ monocytes were purified from PBMCs using anti-CD14-coated microbeads (Miltenyi Biotec). The purity of freshly isolated CD14^+ monocytes was more than 95% as analyzed by flow cytometry. Monocytes were cultured in 12-well plates at 1×10^6 cells/ml with RPMI 1640 medium containing 10% fetal bovine serum (FBS). […]
Total RNA was isolated by the TRIzol reagent, and an equal amount of RNA was used for first-strand cDNA synthesis with SuperScript III First-Strand Synthesis System (Invitrogen) according to the manufacturer's protocol. […] Quantitative measurement of VentX and cytokines cDNA were performed with SYBR Green on a LightCycler® (480 Real-Time PCR System; Roche).

[1] = test system: cytokine mRNA expression in macrophages; experiment: Effects of VentX knockdown on cytokine mRNA expression in macrophages (real-time PCR); parameters: unit not given here; details: macrophages transfected with siRNA; classical activation by LPS plus IFN-γ
Protocol: Macrophages were generated through incubation of freshly isolated monocytes with 100 ng/mL M-CSF for 4 days. These macrophages were then transfected with siGFP or siVentX, respectively, and further cultured in RPMI 1640 medium for additional 3 days. Thereafter, cells were exposed to 1 μg/mL LPS plus 20 ng/mL γ-IFN for 6 hours. (A) Surface staining of CD40, CD80, CD86 and HLA-DR and intracellular staining of TNF-α and IL1-β were analyzed by flow cytometry. (B) Secreted TNF-α, IL1-β and IL12p70 from culture supernatants were determined with ELISA kits. (C) Reactive oxygen species (ROS) from siGFP or siVentX transfected macrophages were analyzed with fluorescence microscope (left) and flow cytometry (middle). […] (D) Nitrate level from siGFP and siVentX transfected macrophages. Data represent mean+SD of three different experiments. (E) Phagocytosis of siGFP and siVentX transfected macrophage. Red histogram represents transfection with siGFP; green histogram represents transfection with siVentX. Left panel: cells were incubated on ice; right panel: cells were incubated at 37° C. (F) Effects of VentX knockdown on mixed lymphocyte reaction. Irradiated macrophages that had been transfected with siGFP or siVentX were utilized to stimulate allogenic naïve CD4 T cells proliferation. The proliferation rates were represented by counts per minute (CPM). […] Statistically significant difference (p<0.05) was observed when 4×10^2 or 2×10^3 cells were added.
(Martinez, et al. 2008 Front Biosci 13:453-461; Mosser, et al. 2008 Nat Rev Immunol 8:958-969.) To investigate whether VentX is required for classical activation of macrophages, a loss-of-function approach by knockdown of VentX was used.
Human primary monocytes were transfected using the Human Monocyte Nucleofector Kit (Lonza) according to the manufacturer's instructions. Briefly, 5×10^6monocytes were resuspended into 100 μl nucleofector solution with 0.5 nmol of either VentX siRNA (forward: 5′-[…]-3′ (SEQ ID NO:4); reverse: 5′-[…]-3′ (SEQ ID NO:5)) or non-effective GFP siRNA (forward: 5′-[…]-3′ (SEQ ID NO:6); 5′-reverse: […]-3′ (SEQ ID NO:7)) before electroporation with nucleofector II Device (Lonza). Cells were then immediately removed from the device and incubated overnight with 1 ml pre-warmed Human Monocyte Nucleofector Medium containing 2 mM glutamine and 10% FBS. Cells were then resuspended into complete RPMI medium and treated with appropriate cytokines to induce differentiation into macrophages. Similarly, macrophages derived from monocytes were transfected with Human Macrophage Nucleofector Kit (Lonza) following the manufacturer's instructions.
Total RNA was isolated by the TRIzol reagent, and an equal amount of RNA was used for first-strand cDNA synthesis with SuperScript III First-Strand Synthesis System (Invitrogen) according to the manufacturer's protocol. To amplify VentX cDNA with conventional PCR, AccuPrime™ Taq DNA polymerase system (Invitrogen) was used following the manufacturer's instructions. PCR products were separated on 2% agarose gels and stained with ethidium bromide. GAPDH was used as an internal control. Quantitative measurement of VentX and cytokines cDNA were performed with SYBR Green on a LightCycler® (480 Real-Time PCR System; Roche). The primers used are listed in the Sequence Listing (SEQ ID NOs: 24-109).

primary monocytes = experiment: Monocyte to macrophage differentiation after siRNA transfection, surface markers by FACS; details: monocytes, 100 ng/mL M-CSF, 4 days after transfection (FIG. 12)
Protocol: (A) knockdown of VentX expression in primary monocytes by RNA interference. Monocytes were transfected with siRNA against GFP or VentX through electroporation. VentX mRNA levels were determined by real time PCR at 3 days after transfection (left); VentX protein level was determined by western blotting at 4 days after transfection (right). (B) Effects of VentX knockdown on macrophage morphogenesis during M-CSF induced differentiation. Monocytes were transfected with either siGFP or siVentX and subsequently exposed to 100 ng/mL M-CSF. […] Magnification of photographs, ×200. Note: a portion of cells lost their original morphology during Wright-Giemsa staining procedure. (C) Effects of VentX knockdown on macrophage surface expression of CD71. […] Filled blue histogram represents the isotope control staining; red histogram represents monocytes transfected with siGFP; green histogram represents monocytes transfected with siVentX. (D) Bar graphs show mean+SD of 6 different experiments in (C). Paired t test was used to reveal the statistical significance. **p<0.01.
(A) Left panel: Flow cytometry analysis of indicated surface markers in monocytes transfected with siGFP or siVentX, respectively; right panel: bar graphs show the mean+SD of at least three separate experiments. *p<0.05; **p<0.01. (B) Effects of VentX knockdown on macrophage viability. Monocytes were transfected with either siGFP or siVentX and subsequently exposed to 100 ng/mL M-CSF for 3 days. Cells were then harvested and stained with PI and Annexin V and analyzed by flow cytometry. (C) Effects of VentX knockdown on phagocytosis. Monocytes were transfected with siGFP or siVentX. Phagocytosis assays were carried out as described in materials and methods. […]
Surface expression of CD71 was determined by FACS analysis at 4 days after siRNA transfection. […]
Peripheral blood mononuclear cells (PBMC) from healthy adult donors at Children's Hospital Boston were isolated by Ficoll density gradient centrifugation. […] The purity of freshly isolated CD14^+ monocytes was more than 95% as analyzed by flow cytometry. […]

GM-CSF: granulocyte macrophage colony-stimulating factor, purchased from PeproTech
VentX expression during monocyte to macrophage differentiation (VentX): up-regulated

siGFP: non-effective GFP siRNA, forward 5′-UGACCACCCUGACCUACGGCGUGCAGUGC-3′ (SEQ ID NO:6), reverse SEQ ID NO:7 (antisense GCACUGCACGCCGUAGGUCAGGGUGGUCA; listed as RNA, chemistry not given here) [reference compound]
IL1-β cytokine mRNA expression [1]: 51.08 ± 3.2
IL6 cytokine mRNA expression [1]: 3.40 ± 0.21
IL8 cytokine mRNA expression [1]: 471 ± 10.2
IL12p35 cytokine mRNA expression [1]: 1.77 ± 0.21
IL12p40 cytokine mRNA expression [1]: 0.52 ± 0.02
M-SCSF cytokine mRNA expression [1]: 0.40 ± 0.01
TNF-α cytokine mRNA expression [1]: 0.46 ± 0.04

VentX siRNA-2: second siRNA sequence against VentX, 5′-UCUACUCAACGUCUUCUGGCCUUGCCAAU-3′ (SEQ ID NO:3) (listed as RNA, chemistry not given here)
surface expression of CD71 and other markers (primary monocytes): down-regulated

B1: M-CSF: macrophage colony-stimulating factor, purchased from PeproTech (protein, UniProt P09603 33-554, looked up)
Macrophage colony-stimulating …: EEVSEYCSHMIGSGHLQSLQRLIDSQMETSCQITFEFVDQEQLKDPVCYLKKAFLLVQDIMEDTMRFRDNTPNAIAIVQLQELSLRLKSCFTKDYEEHDKACVRTFYETPLQLLEKVKNVFNETKNLLDKDWNIFSKNCNNSFAECSSQDVVTKPDCNCLYPKAIPSSDPASVSPHQPLAPSMAPVAGLTWEDSEGTEGSSLLPGEQPLHTVDPGSAKQRPPRSTCQSFEPPETPVVKDSTIGGSPQPRPSVGAFNPGMEDILDSAMGTNWVPEEASGEASEIPVPQGTELSPSRPGGGSMQTEPARPSNFLSASSPLPASAKGQQPADVTGTALPRVGPVRPTGQDWNHTPQKTDHPSALLRDPPEPGSPRISSLRPQGLSNPSTLSAQPQLSRSHSSGSVLPLGELEGRRSTRDRRSPAEPEGGPASEGAARPLPRFNSVPLTDTGHERQSEGSFSPQLQESVFHLLVPSVILVLLAVGGLLFYRWRRRSHQEPQRADSPLEQPEGSPLTQDDRQVELPV
VentX expression during monocyte to macrophage differentiation (VentX): up-regulated
